Laboratory results taken from US7803797B2, “Substituted arylcyclopentenes as therapeutic agents” (Allergan, Inc., priority 2008, dated 2010).

Key:
Assay type in all cases: in vivo
[1] = system: normotensive dogs; experiment: Intraocular pressure (IOP) reduction in normotensive dogs
Experimental: Compounds 14a, 14b, 16a, 16b. 22a, 22b, 33a, 33b, 34a, 34b, 35a, 35b, 46a, 46b, 51a, 51 b, 58a, 58b, 69a, 69b, 70a and 70b from above are tested in vivo to measure its ability to reduce intraocular pressure. Compound 14a is tested in normotensive dogs.

[2] = system: laser-induced hypertensive monkeys; experiment: Intraocular pressure (IOP) reduction in laser-induced hypertensive monkeys
[3] = system: lashes and adjacent hairs of the eyelids; experiment: Clinical observation of lashes in glaucoma patients treated in one eye; details: glaucoma patients treated in only one eye
Source text: In the course of treating patients having glaucoma, treatment may only be appropriate in one eye. […] The lash appearance on the lids of the treated eyes would have appeared quite attractive if it represented a bilateral phenomenon. As a result of its asymmetric nature, the long lashes on one side could be construed as disturbing from a cosmetic standpoint. A systemic examination was preformed as a result of the asymmetric phenomenon. It soon became apparent that this altered appearance was not an isolated finding. […] Definite differences could be identified to varying degrees in the lashes and adjacent hairs of all patients who were taking the drug on a unilateral basis for longer than 6 months.
The changes in the lashes were apparent on gross inspection in several patients once attention was focused on the issue. In those with light colored hair and lashes, the differences were only seen easily with the aid of the high magnification and lighting capabilities of the slit lamp biomicroscope. In the course of glaucoma follow-up examination, attention is generally immediately focused on the eye itself. As a result of the high power magnification needed only one eye is seen at a time and the eye is seen at a high enough power that the lashes are not in focus. […]

Structure (SMILES): O=C(OCCN1CCOCC1)c1ccc(CCC[C@@H]2[C@@H](COc3cc(Cl)cc(CO)c3)CC[C@H]2Cl)s1 [51 b]
- intraocular pressure (IOP) change from baseline [1]: decreases from baseline
- IOP change from baseline [2]: decreases from baseline

Structure (SMILES): O=C(CCC/C=C\C[C@@H]1[C@@H](COc2cc(Cl)cc(CCO)c2)[C@H](O)C[C@H]1Cl)OCCO [Compound 14a]
- intraocular pressure (IOP) change from baseline [1]: decreases from baseline
- IOP change from baseline [2]: decreases from baseline

Structure (SMILES): O=C(CCC/C=C\C[C@@H]1[C@@H](COc2cc(Cl)cc(CCO)c2)[C@H](O)C[C@H]1Cl)OCCN1CCOCC1 [Compound 14b]
- intraocular pressure (IOP) change from baseline [1]: decreases from baseline
- IOP change from baseline [2]: decreases from baseline

Structure (SMILES): CC(=O)OCCc1cc(Cl)cc(OC[C@@H]2[C@@H](C/C=C\CCCC(=O)OCCO)[C@H](Cl)C[C@H]2O)c1 [Compound 16a]
- intraocular pressure (IOP) change from baseline [1]: decreases from baseline
- IOP change from baseline [2]: decreases from baseline

Structure (SMILES): CC(=O)OCCc1cc(Cl)cc(OC[C@@H]2[C@@H](C/C=C\CCCC(=O)OCCN3CCOCC3)[C@H](Cl)C[C@H]2O)c1 [Compound 16b]
- intraocular pressure (IOP) change from baseline [1]: decreases from baseline
- IOP change from baseline [2]: decreases from baseline

Structure (SMILES): COCc1cc(Cl)cc(OC[C@@H]2[C@@H](C/C=C\CCCC(=O)OCCO)[C@H](Cl)C[C@H]2O)c1 [Compound 22a]
- intraocular pressure (IOP) change from baseline [1]: decreases from baseline
- IOP change from baseline [2]: decreases from baseline

Structure (SMILES): COCc1cc(Cl)cc(OC[C@@H]2[C@@H](C/C=C\CCCC(=O)OCCN3CCOCC3)[C@H](Cl)C[C@H]2O)c1 [Compound 22b]
- intraocular pressure (IOP) change from baseline [1]: decreases from baseline
- IOP change from baseline [2]: decreases from baseline

Structure (SMILES): O=C(OCCO)c1ccc(CCC[C@@H]2[C@@H](COc3cc(Cl)cc(Cl)c3)[C@H](O)C[C@H]2Cl)s1 [Compound 33a]
- intraocular pressure (IOP) change from baseline [1]: decreases from baseline
- IOP change from baseline [2]: decreases from baseline

Structure (SMILES): O=C(OCCN1CCOCC1)c1ccc(CCC[C@@H]2[C@@H](COc3cc(Cl)cc(Cl)c3)[C@H](O)C[C@H]2Cl)s1 [Compound 33b]
- intraocular pressure (IOP) change from baseline [1]: decreases from baseline
- IOP change from baseline [2]: decreases from baseline

Structure (SMILES): Cc1cc(C)cc(OC[C@@H]2[C@@H](CCCc3ccc(C(=O)OCCO)s3)[C@H](Cl)C[C@H]2O)c1 [Compound 35a]
- intraocular pressure (IOP) change from baseline [1]: decreases from baseline
- IOP change from baseline [2]: decreases from baseline

Structure (SMILES): Cc1cc(C)cc(OC[C@@H]2[C@@H](CCCc3ccc(C(=O)OCCN4CCOCC4)s3)[C@H](Cl)C[C@H]2O)c1 [Compound 35b]
- intraocular pressure (IOP) change from baseline [1]: decreases from baseline
- IOP change from baseline [2]: decreases from baseline

Structure (SMILES): O=C(OCCO)c1ccc(CCC[C@H]2C(=O)CC[C@@H]2COc2cc(Cl)cc(CO)c2)s1 [Compound 46a]
- intraocular pressure (IOP) change from baseline [1]: decreases from baseline
- IOP change from baseline [2]: decreases from baseline

Structure (SMILES): O=C(OCCN1CCOCC1)c1ccc(CCC[C@H]2C(=O)CC[C@@H]2COc2cc(Cl)cc(CO)c2)s1 [Compound 46b]
- intraocular pressure (IOP) change from baseline [1]: decreases from baseline
- IOP change from baseline [2]: decreases from baseline

Structure (SMILES): O=C(OCCO)c1ccc(CCC[C@@H]2[C@@H](COc3cc(Cl)cc(CO)c3)CC[C@H]2Cl)s1 [Compound 51a]
- intraocular pressure (IOP) change from baseline [1]: decreases from baseline
- IOP change from baseline [2]: decreases from baseline

Structure (SMILES): N#C[C@@H]1C[C@@H](O)[C@H](COc2cc(Cl)cc(Cl)c2)[C@H]1CCCc1ccc(C(=O)OCCO)s1 [Compound 58a]
- intraocular pressure (IOP) change from baseline [1]: decreases from baseline
- IOP change from baseline [2]: decreases from baseline

Structure (SMILES): N#C[C@@H]1C[C@@H](O)[C@H](COc2cc(Cl)cc(Cl)c2)[C@H]1CCCc1ccc(C(=O)OCCN2CCOCC2)s1 [Compound 58b]
- intraocular pressure (IOP) change from baseline [1]: decreases from baseline
- IOP change from baseline [2]: decreases from baseline

Structure (SMILES): O=C(OCCO)c1ccc(CCCC2=CC[C@@H](O)[C@@H]2COc2cc(Cl)cc(Cl)c2)s1 [Compound 69a]
- intraocular pressure (IOP) change from baseline [1]: decreases from baseline
- IOP change from baseline [2]: decreases from baseline

Structure (SMILES): O=C(OCCN1CCOCC1)c1ccc(CCCC2=CC[C@@H](O)[C@@H]2COc2cc(Cl)cc(Cl)c2)s1 [Compound 69b]
- intraocular pressure (IOP) change from baseline [1]: decreases from baseline
- IOP change from baseline [2]: decreases from baseline

Structure (SMILES): O=C(OCCO)c1ccc(CCC[C@@H]2[C@@H](COc3cc(Cl)cc(Cl)c3)[C@H](O)C[C@H]2F)s1 [Compound 70a]
- intraocular pressure (IOP) change from baseline [1]: decreases from baseline
- IOP change from baseline [2]: decreases from baseline

Structure (SMILES): O=C(OCCN1CCOCC1)c1ccc(CCC[C@@H]2[C@@H](COc3cc(Cl)cc(Cl)c3)[C@H](O)C[C@H]2F)s1 [Compound 70b]
- intraocular pressure (IOP) change from baseline [1]: decreases from baseline
- IOP change from baseline [2]: decreases from baseline

Structure (SMILES): CCNC(=O)CCC/C=C\C[C@@H]1[C@@H](/C=C/[C@@H](O)CCc2ccccc2)[C@H](O)C[C@@H]1O [bimatoprost]
- lash appearance, treated eye versus non-treated eye [3]: longer, thicker, and fuller in the treated eye than in the non-treated eye
